Patent publication US7811352B2, “Fertilizer compositions and methods of using” (priority 2005, dated 2010)

How the values were obtained:
Assay type in all cases: in vivo
[1] = tested on: Pennlinks creeping bentgrass maintained as a golf fairway; assay: Phytotoxic injury rating, fairway creeping bentgrass (Example 15)
Source text: (§1) In this Example, the effect of a fertilizer comprising lysine on cool season fairway turfgrass growth was examined. The effects of lysine (HCl) and LIQUID LYSINE on a common type of golf course fairway variety turfgrass (Pennlinks creeping bentgrass maintained as a golf fairway) were compared with those of urea, Milorganite and a blended fertilizer (a blend of methylene urea and urea in an approximately 1:1 ratio).
Fifteen fertilizer treatments comprising three concentrations of each fertilizer composition (Milorganite (N—P—K, 6-2-0), urea (N—P—K, 46-0-0), a blended fertilizer, LIQUID LYSINE (N—P—K, 10-2-1), and lysine (HCl) (N—P—K, 15-2-1)) were prepared and applied to 3 replications of a well established Pennlinks creeping bentgrass maintained as a golf fairway grass. The urea, lysine (HCl), and LIQUID LYSINE were dissolved/suspended in 1.5 gal water prior to application. […] The urea, LIQUID LYSINE and lysine (HCl) were applied as foliar liquids, while Milorganite and the blended fertilizer were applied as granular fertilizers. Plot size was 4 ft×8 ft laid out in a replicated complete block design. Plots were mowed at 0.5 inches before fertilizer application and mowed three times per week to 0.5 inch height. Grass clippings were not removed from the plots and no supplemental cultural maintenance was applied. Irrigation (0.15 inch) was applied following application and every other day thereafter. Plots were rated for turfgrass quality (scale of 1-9 where 9=dark green turf, 1=dead/brown turf, and 6=minimally acceptable turf and phytotoxic injury (scale of 0-9 where 9=significant foliar injury and 2=minimally objectional foliar injury) throughout the study period. Quality was measured prior to application (day 0) and day 37, day 70 and day 95 after application. Injury was measured on day 37, day 70 and day 95 after application. All data was subject to statistical analysis and significant means were determined. Average turfgrass quality ratings for the treatments are presented in Table 24.

[2] = tested on: ultra-dwarf Bermuda grass; assay: Phytotoxicity rating, ultra-dwarf Bermuda grass greens (Example 11); conditions: scale 0-5, 5=worst
Source text: In this Example, the effect of a fertilizer comprising lysine on warm season turfgrass growth was examined. The effects of lysine (HCl) and LIQUID LYSINE on a common type of golf course greens quality turfgrass (ultra-dwarf Bermuda grass) were compared with those of urea and Milorganite.
Twelve fertilizer treatments comprising three concentrations of each fertilizer composition (Milorganite (N—P—K, 6-2-0), urea (N—P—K, 46-0-0), LIQUID LYSINE (N—P—K, 10-2-1), and lysine (HCl) (N—P—K, 15-2-1)) were prepared and applied to 3 replications of ultra-dwarf Bermuda grass. The lysine (HCl) was dissolved in water prior to application. Each fertilizer treatment was applied in concentrations of 0.125 lb N/1000 ft^2/week, 0.25 lb N/1000 ft^2/week and 0.75 lb N/1000 ft^2/week. The urea, LIQUID LYSINE and lysine (HCl) were applied as foliar liquids, while Milorganite was applied as a granular fertilizer. Plot size was 1 m×1 m set up as a randomized complete block. Plots were mowed at 0.125 inches before fertilizer application. Irrigation (0.15 inch) was applied following application. Plots were rated for turfgrass quality and color (scale of 1-10 where 10=dark green turf, 1=dead/brown turf, and 6=initially acceptable turf) and phytotoxicity (scale of 0-5, where 5=worst, and 2=minimally objectionable) throughout the study period. Quality, color, and phytotoxicity were measured on 2 days before application (day −2) and day 2, day 5, day 15 and day 21 after application. All data was subject to statistical analysis and significant means were determined. Average turfgrass quality ratings for the treatments are presented in Table 12 and the quality results for application rates of 0.25 lb N/1000 ft^2/week are graphically presented in FIG. 6.

[3] = tested on: Moonlight Kentucky bluegrass; assay: Phytotoxic injury rating, Kentucky bluegrass lawn (Example 17)
Source text: as §1, with “lawn variety” for “fairway”, “variety” for “type”, “law” for “golf course fairway variety”, “(Moonlight Kentucky bluegrass)” for “(Pennlinks creeping bentgrass maintained as a golf fairway)”
Fifteen fertilizer treatments comprising three concentrations of each fertilizer composition (Milorganite N—P—K, 6-2-0), urea (N—P—K, 46-0-0), a blended fertilizer, LIQUID LYSINE (N—P—K, 10-2-1), and lysine (HCl) (N—P—K, 15-2-1)) were prepared and applied to 3 replications of newly established “Moonlight” variety Kentucky bluegrass lawn turfgrass. The urea, lysine (HCl), and LIQUID LYSINE were dissolved/suspended in 1.5 gal water prior to application. […], […], The urea, LIQUID LYSINE and lysine (HCl) were applied as foliar liquids, while Milorganite and the blended fertilizer were applied as granular fertilizers. Plot size was 4 ft×8 ft laid out in a replicated complete block design. Plots were mowed at 2.0 inches before fertilizer application and mowed two times per week to 2.0 inch height. Grass clippings were not removed from the plots and no supplemental cultural maintenance or pest management was applied. Irrigation (0.15 inch) was applied following application and thereafter only when necessary to insure survival of the turf. Plots were rated for turfgrass quality (scale of 1-9 where 9=dark green turf, 1=dead/brown turf, and 6=minimally acceptable turf) and phytotoxic injury (scale of 0-9 where 9=significant foliar injury and 2=minimally objectionable foliar injury) throughout the study period. Quality was measured prior to application (day 0) and day 37, day 70 and day 95 after application. Injury was measured on day 37 and day 70 after application. In addition, blade density of the grass was measured on day 70 after application (scale of 1-9, where 9=very dense turf, 1=low density turf). All data was subject to statistical analysis and significant means were determined.

[4] = Weekly Rate 0.5 lbs N/1000 ft^2, Day 37
[5] = Weekly Rate 0.5 lbs N/1000 ft^2, Day 70
[6] = Weekly Rate 0.5 lbs N/1000 ft^2, Day 95
[7] = Weekly Rate 1.0 lbs N/1000 ft^2, Day 37
[8] = Weekly Rate 1.0 lbs N/1000 ft^2, Day 70
[9] = Weekly Rate 1.0 lbs N/1000 ft^2, Day 95
[10] = Weekly Rate 3.0 lbs N/1000 ft^2, Day 37
[11] = Weekly Rate 3.0 lbs N/1000 ft^2, Day 70
[12] = Weekly Rate 3.0 lbs N/1000 ft^2, Day 95
[13] = Weekly Rate 0.125 lbs N/1000 ft^2, Day 2
[14] = Weekly Rate 0.125 lbs N/1000 ft^2, Day 5
[15] = Weekly Rate 0.125 lbs N/1000 ft^2, Day 15
[16] = Weekly Rate 0.125 lbs N/1000 ft^2, Day 21
[17] = Weekly Rate 0.125 lbs N/1000 ft^2, Day −2 (before application)
[18] = Weekly Rate 0.25 lbs N/1000 ft^2, Day 2
[19] = Weekly Rate 0.25 lbs N/1000 ft^2, Day 5
[20] = Weekly Rate 0.25 lbs N/1000 ft^2, Day 15
[21] = Weekly Rate 0.25 lbs N/1000 ft^2, Day 21
[22] = Weekly Rate 0.25 lbs N/1000 ft^2, Day −2 (before application)
[23] = Weekly Rate 0.75 lbs N/1000 ft^2, Day 2
[24] = Weekly Rate 0.75 lbs N/1000 ft^2, Day 5
[25] = Weekly Rate 0.75 lbs N/1000 ft^2, Day 15
[26] = Weekly Rate 0.75 lbs N/1000 ft^2, Day 21
[27] = Weekly Rate 0.75 lbs N/1000 ft^2, Day −2 (before application)

Row | Compound | Injury Rating - Fairway Bentgrass [1, 4] [ab] | Injury Rating - Fairway Bentgrass [1, 5] | Injury Rating - Fairway Bentgrass [1, 6] [bc] | Injury Rating - Fairway Bentgrass [1, 7] | Injury Rating - Fairway Bentgrass [1, 8] | Injury Rating - Fairway Bentgrass [1, 9] | Injury Rating - Fairway Bentgrass [1, 10] | Injury Rating - Fairway Bentgrass [1, 11] | Injury Rating - Fairway Bentgrass [1, 12] | Phytotoxicity - Dwarf Bermuda Grass [2, 13] | Phytotoxicity - Dwarf Bermuda Grass [2, 14] | Phytotoxicity - Dwarf Bermuda Grass [2, 15] | Phytotoxicity - Dwarf Bermuda Grass [2, 16] | Phytotoxicity - Dwarf Bermuda Grass [2, 17] | Phytotoxicity - Dwarf Bermuda Grass [2, 18] | Phytotoxicity - Dwarf Bermuda Grass [2, 19] | Phytotoxicity - Dwarf Bermuda Grass [2, 20] | Phytotoxicity - Dwarf Bermuda Grass [2, 21] | Phytotoxicity - Dwarf Bermuda Grass [2, 22] | Phytotoxicity - Dwarf Bermuda Grass [2, 23] | further results
1 | NC(N)=O [Urea, urea, reference compound] | 1.3 | 6.3 | 2.0 | 1.3ab | 6.0 | 1.3c | 1.0b | 5.7 | 4.3a | 0 | 0 | 0 | 0 | 0 | 0 | 0 | 0 | 0 | 0 | 0 | Phytotoxicity - Dwarf Bermuda Grass [2, 24]: 0; Phytotoxicity - Dwarf Bermuda Grass [2, 25]: 0; Phytotoxicity - Dwarf Bermuda Grass [2, 26]: 0; Phytotoxicity - Dwarf Bermuda Grass [2, 27]: 0; Injury Rating - Kentucky Bluegrass [3, 4]: 1.0e; Injury Rating - Kentucky Bluegrass [3, 5]: 5.0c; Injury Rating - Kentucky Bluegrass [3, 7]: 1.3e; Injury Rating - Kentucky Bluegrass [3, 8]: 5.7bc; Injury Rating - Kentucky Bluegrass [3, 10]: 3.3bc; Injury Rating - Kentucky Bluegrass [3, 11]: 7.0ab
2 | Cl.NCCCC[C@H](N)C(=O)O [Lys (HCl) 15% N, L-lysine monohydrochloride] | 1.3 | 5.7 | 2.0 | 1.0b | 5.0 | 3.0abc | 2.0a | 4.7 | 2.0bc | 0 | 0 | 0 | 0 | 0 | 0 | 0 | 0 | 0 | 0 | 0 | Phytotoxicity - Dwarf Bermuda Grass [2, 24]: 0; Phytotoxicity - Dwarf Bermuda Grass [2, 25]: 0; Phytotoxicity - Dwarf Bermuda Grass [2, 26]: 0; Phytotoxicity - Dwarf Bermuda Grass [2, 27]: 0; Injury Rating - Kentucky Bluegrass [3, 4]: 1.7de; Injury Rating - Kentucky Bluegrass [3, 5]: 5.0c; Injury Rating - Kentucky Bluegrass [3, 7]: 2.7cd; Injury Rating - Kentucky Bluegrass [3, 8]: 6.0abc; Injury Rating - Kentucky Bluegrass [3, 10]: 6.3a; Injury Rating - Kentucky Bluegrass [3, 11]: 7.0ab
